What was measured:
Veronica [1] = assay: Post-emergence test/greenhouse; type: in vivo; details: 60 g of a.i./ha, after three weeks
Protocol: (§1) To produce a suitable preparation of active compound, 1 part by weight of active compound is mixed with the stated amount of solvent, the stated amount of emulsifier is added and the concentrate is diluted with water to the desired concentration.
(§2) Test plants of a height of 5 -15 cm are sprayed with the preparation of active compound such that the particular amounts of active compound desired are applied per unit area. The concentration of the spray liquor is chosen so that the particular amounts of active compound desired are applied in 1000 l of water/ha.
(§3) After three weeks, the degree of damage to the plants is rated in % damage in comparison to the development of the untreated control.
(§4) 0%=no effect (like untreated control)

Echinochloa [2] = assay: Post-emergence test/greenhouse; type: in vivo; details: 60 g of a.i./ha, after three weeks
Protocol: as §1, §2, §3, §4

Amaranthus [3] = assay: Post-emergence test/greenhouse; type: in vivo; details: 504 h, after three weeks, read-out: degree of damage, Amaranthus; for pest or weed control at 60 g/ha: 60 g of a.i./ha; for pest or weed control at 125 g/ha: 125 g of a.i./ha
Protocol: as §1, §2, §3, §4

Polygonum = assay: Post-emergence test/greenhouse; type: in vivo; details: 60 g of a.i./ha, after three weeks
Protocol: as §1, §2, §3, §4

Sorghum = assay: Post-emergence test/greenhouse; type: in vivo; details: 60 g of a.i./ha, after three weeks
Protocol: as §1, §2, §3, §4

weeds [4] = assay: Pre-emergence test, activity against weeds; type: in vivo
Protocol: as §1
(§5) Seeds of the test plants are sown in normal soil. After about 24 hours, the soil is sprayed with the preparation of active compound such that the particular amount of active compound desired is applied per unit area. The concentration of the spray liquor is chosen so that the particular amount of active compound desired is applied in 1000 liters of water per hectare.
as §3, §4

weeds [5] = assay: Post-emergence test, activity against weeds; type: in vivo
Protocol: as §1, §2, §3, §4

Veronica [6] = assay: Pre-emergence test/greenhouse; type: in vivo; details: 504 h, after three weeks, read-out: degree of damage, Veronica; for pest or weed control at 125 g/ha: 125 g of a.i./ha
Protocol: as §1, §5, §3, §4

Echinochloa [7] = assay: Pre-emergence test/greenhouse; type: in vivo; details: 504 h, after three weeks, read-out: degree of damage, Echinochloa; for pest or weed control at 125 g/ha: 125 g of a.i./ha
Protocol: as §1, §5, §3, §4

Amaranthus [8] = assay: Pre-emergence test/greenhouse; type: in vivo; details: 504 h, after three weeks, read-out: degree of damage, Amaranthus; for pest or weed control at 125 g/ha: 125 g of a.i./ha
Protocol: as §1, §5, §3, §4

Matricaria = assay: Pre-emergence test/greenhouse; type: in vivo; details: 504 h, after three weeks, read-out: degree of damage, Matricaria; for pest or weed control at 125 g/ha: 125 g of a.i./ha
Protocol: as §1, §5, §3, §4

Setaria [9] = assay: Pre-emergence test/greenhouse; type: in vivo; details: 60 g of a.i./ha, after three weeks
Protocol: as §1, §5, §3, §4

Solanum = assay: Post-emergence test/greenhouse; type: in vivo; details: 504 h, after three weeks, read-out: degree of damage, Solanum; for pest or weed control at 125 g/ha: 125 g of a.i./ha
Protocol: as §1, §2, §3, §4

Stellaria = assay: Post-emergence test/greenhouse; type: in vivo; details: 504 h, after three weeks, read-out: degree of damage, Stellaria; for pest or weed control at 60 g/ha: 60 g of a.i./ha; for pest or weed control at 125 g/ha: 125 g of a.i./ha
Protocol: as §1, §2, §3, §4

Setaria [10] = assay: Post-emergence test/greenhouse; type: in vivo; details: after three weeks
Protocol: as §1, §2, §3, §4

Abutilon = assay: Post-emergence test/greenhouse; type: in vivo; details: 504 h, after three weeks, read-out: degree of damage, Abutilon; for pest or weed control at 60 g/ha: 60 g of a.i./ha; for pest or weed control at 125 g/ha: 125 g of a.i./ha
Protocol: as §1, §2, §3, §4

Chenopodium [11] = assay: Post-emergence test/greenhouse; type: in vivo; details: 504 h, after three weeks, read-out: degree of damage, Chenopodium; for pest or weed control at 125 g/ha: 125 g of a.i./ha
Protocol: as §1, §2, §3, §4

Chenopodium [12] = assay: Pre-emergence test/greenhouse; type: in vivo; details: 125 g of a.i./ha, after three weeks
Protocol: as §1, §5, §3, §4

Digitaria = assay: Pre-emergence test/greenhouse; type: in vivo; details: 125 g of a.i./ha, after three weeks
Protocol: as §1, §5, §3, §4

SMILES | pest or weed control at 60 g/ha (Amaranthus [3]) [%] | activity against weeds (weeds [4]) | activity against weeds (weeds [5]) | pest or weed control at 125 g/ha (Veronica [6]) [%] | pest or weed control at 125 g/ha (Echinochloa [7]) [%] | pest or weed control at 125 g/ha (Amaranthus [8]) [%] | pest or weed control at 125 g/ha (Matricaria) [%] | degree of damage, Chenopodium (Chenopodium [12]) [%] | pest or weed control at 125 g/ha (Solanum) [%] | pest or weed control at 125 g/ha (Amaranthus [3]) [%] | pest or weed control at 125 g/ha (Stellaria) [%] | degree of damage, Setaria (Setaria [10]; 125 g of a.i./ha) [%] | pest or weed control at 125 g/ha (Abutilon) [%] | other results
CCOc1nn(C(=O)NS(=O)(=O)/N=c2\sccn2CCCF)c(=O)n1C [Example 1] | 95 | very strong activity | very strong activity |  |  |  |  |  |  |  |  |  |  | degree of damage, Veronica (Veronica [1]): 90%; degree of damage, Echinochloa (Echinochloa [2]): 95%; degree of damage, Polygonum (Polygonum): 90%; degree of damage, Sorghum (Sorghum): 95%; melting point: 178 °C; pest or weed control at 60 g/ha (Veronica [6]; 60 g of a.i./ha): 100%; pest or weed control at 60 g/ha (Echinochloa [7]; 60 g of a.i./ha): 100%; pest or weed control at 60 g/ha (Amaranthus [8]; 60 g of a.i./ha): 100%; pest or weed control at 60 g/ha (Matricaria; 60 g of a.i./ha): 100%; degree of damage, Setaria (Setaria [9]): 100%
CCCc1nn(C(=O)NS(=O)(=O)/N=c2\sccn2CCC)c(=O)n1C [Example 2] | 90 |  | very strong activity |  |  |  |  |  |  |  |  |  |  | pest or weed control at 60 g/ha (Solanum; 60 g of a.i./ha): 95%; pest or weed control at 60 g/ha (Stellaria): 90%; degree of damage, Setaria (Setaria [10]; 60 g of a.i./ha): 90%; pest or weed control at 60 g/ha (Abutilon): 90%
CCCn1ccs/c1=N\S(=O)(=O)NC(=O)n1nc(OC(C)C)n(C)c1=O [Example 9] | 90 |  | very strong activity |  |  |  |  |  |  |  |  |  |  | pest or weed control at 60 g/ha (Stellaria): 90%; pest or weed control at 60 g/ha (Abutilon): 90%; pest or weed control at 60 g/ha (Chenopodium [11]; 60 g of a.i./ha): 80%
CCCn1ccs/c1=N\S(=O)(=O)NC(=O)n1nc(OC)n(C2CC2)c1=O [Example 29] |  | very strong activity |  | 100 | 95 | 100 | 95 | 100 |  |  |  |  |  | 
CCCn1ccs/c1=N\S(=O)(=O)NC(=O)n1nc(OCC)n(C2CC2)c1=O [Example 30] |  | very strong activity |  | 100 | 95 | 100 | 100 | 100 |  |  |  |  |  | degree of damage, Digitaria (Digitaria): 90%
CCCn1ccs/c1=N\S(=O)(=O)NC(=O)n1nc(OC(C)C)n(C2CC2)c1=O [Example 33] |  | very strong activity | very strong activity | 95 | 80 | 100 | 100 | 100 | 95 | 100 | 95 | 80 | 100 | pest or weed control at 125 g/ha (Chenopodium [11]): 100%
CCCn1ccs/c1=N\S(=O)(=O)NC(=O)n1nc(OC2CC2)n(C2CC2)c1=O [Example 34] |  |  | very strong activity |  |  |  |  |  | 100 | 100 | 100 | 70 | 95 | pest or weed control at 125 g/ha (Chenopodium [11]): 100%
CCCn1ccs/c1=N\S(=O)(=O)NC(=O)n1nc(C2CC2)n(C)c1=O [Example 41] |  |  | very strong activity |  |  |  |  |  | 90 | 90 | 95 | 70 | 90 | 
